≈ marks a conversion by molar mass, not a printed value.
Settings: buffer; pH 7.4; 200.0 µM

| solubility kinetic [µg/mL] | Structure (SMILES) |
| --- | --- |
| > 52.4 | Cc1cccc(-c2nsc(SCC(=O)NCC3CCCO3)n2)c1 (stereo not drawn) |
| > 43.4 | CCOC(=O)C1CCN(c2ncnc3c2cnn3C)CC1 |
| 37.9 | Cl.NCCSC1CC(=O)N(Cc2ccc(F)cc2)C1=O (stereo not drawn) |
| 9.9 (≈ 29.1 µM) | N#CCCN(C(=O)COC(=O)/C=C/c1cccs1)c1ccccc1 |
| 35.8 (≈ 122 µM) | CC(NC(=O)c1ccc(Br)o1)c1ccccc1 (stereo not drawn) |
| 10.9 (≈ 37.7 µM) | Cc1ccsc1C(=O)OCC(=O)NCc1ccccc1 |
| 9.7 (≈ 28.8 µM) | CS(=O)(=O)N1CCN(c2ccc([N+](=O)[O-])c3cccnc23)CC1 |
| < 0.7 | COc1ccc(NC(=O)c2cc(=O)c3ccccc3o2)cc1Cl |
| 4.2 (≈ 13.2 µM) | CCOc1ccc(NC(=O)COC(=O)c2cc(C)oc2C)cc1 |
| 37 (≈ 118 µM) | CCOC(=O)C1CCN(C(=O)c2cc3cc(C)ccc3[nH]2)CC1 |
| 11.1 (≈ 32 µM) | CC(C)NC(=O)c1ccc(N(Cc2ccccc2)S(C)(=O)=O)cc1 |
| 7.3 (≈ 21.2 µM) | O=C(CN1CCOCC1)Nc1ccc([N+](=O)[O-])cc1Br |
| 42.3 (≈ 135 µM) | CC(NC1CCN(Cc2ccccc2)CC1)c1ccc(F)cc1 (stereo not drawn) |
| 33.9 (≈ 111 µM) | CCc1nc2ccccc2c(C(=O)NCc2ccccc2)c1C |
| 44.7 (≈ 136 µM) | CCCS(=O)(=O)N1CCCC(C(=O)c2cccc(Cl)c2)C1 (stereo not drawn) |
| > 39.2 | Cc1ccccc1OCC(=O)N1CCCCCCC1 |
| 44.6 (≈ 110 µM) | Cc1ccc(NC(=O)CCc2ccc(S(=O)(=O)N3CCOCC3)cc2)c(O)c1 |
| 3.8 (≈ 12 µM) | O=C1NC(=O)/C(=C/c2ccc(-c3cccc([N+](=O)[O-])c3)o2)S1 |
| 2 (≈ 6.96 µM) | Nc1nccc(-c2ccc(-n3cnc4ccccc43)cc2)n1 |
| > 46.7 | Cc1cccc(NC(=O)CN2C(=O)C(C)Oc3ccccc32)n1 (stereo not drawn) |
| 41.5 (≈ 128 µM) | O=C(CC1NCCN(Cc2ccccc2)C1=O)Nc1ccccc1 (stereo not drawn) |
| 2.9 (≈ 8.48 µM) | O=C(COc1cccnc1[N+](=O)[O-])Nc1cc(Cl)ccc1Cl |
| > 35.1 | CSC1=NCCN1C(=O)c1ccc(C)cc1 |
| 0.9 (≈ 2.84 µM) | Cc1ccc(OCc2nc(-c3cccs3)no2)c([N+](=O)[O-])c1 |

| solubility kinetic [µg/mL] | Structure (SMILES) |
| --- | --- |
| 48.7 (≈ 123 µM) | C[C@@H](C(=O)NC1CCCC1)N1C(=O)N2CCc3c([nH]c4ccccc34)[C@@]2(C)C1=O |
| > 42.5 | O=C1c2ccc([N+](=O)[O-])cc2C(=O)N1Cc1cccnc1 |
| > 40.2 | Cc1[nH]ccc(=O)c1Cc1c(Cl)cccc1Cl |
| 28.6 (≈ 141 µM) | Cc1cc(=S)nc(-c2ccccn2)[nH]1 |
| > 50.1 | O=C(COc1ccccc1Cl)NCCNC(=O)c1ccccn1 |
| 18.2 (≈ 105 µM) | CSc1sccc1/C=N/O |
| 56.3 (≈ 136 µM) | O=C(O)c1ccc(N/C(=N\S(=O)(=O)c2ccc(Cl)cc2)c2ccccc2)cc1 |
| > 50.2 | O=C(COC(=O)Cc1ccc([N+](=O)[O-])cc1)NC1CCCCCC1 |
| < 0.4 | Cc1cccc(C)c1OCC(=O)Nc1ccccc1N1CCCCC1 |
| 7.3 (≈ 32.1 µM) | N#Cc1c(-c2ccccc2)nc2n1CCS2 |
| 31.9 (≈ 128 µM) | COc1ccc(CCC(C)N2CCOCC2)cc1 (stereo not drawn) |
| 43.5 (≈ 120 µM) | CC(=O)N1Cc2ccccc2CC1C(=O)N1CCN(c2ccccc2)CC1 (stereo not drawn) |
| 36.9 (≈ 125 µM) | Cc1ccc2[nH]cc(CCNC(=O)/C=C/c3ccco3)c2c1 |
| > 38.1 | O=C(Cc1c[nH]c2ccccc12)NCc1ccco1 |
| 1.9 (≈ 5.77 µM) | Cc1cnc(NC(=O)c2ccc(-c3ccc([N+](=O)[O-])cc3)o2)s1 |
| 8.1 (≈ 24 µM) | CCCCC(=O)Nc1ccccc1N1CCN(c2ccccc2)CC1 |
| 35.4 (≈ 136 µM) | Cc1cc(=O)oc(C)c1C(=O)Nc1ccccc1F |
| 35.3 (≈ 140 µM) | Clc1ccc2scc(CN3CCCC3)c2c1 |
| > 42.7 | CCCc1nnc(SCC(=O)Nc2nccs2)o1 |
| > 27.3 | Nc1ccc(C(=O)O)cc1[N+](=O)[O-] |
| > 47.5 | O=C(Cc1ccc(F)cc1)N1CCN(c2ccc(F)cc2)CC1 |
| 29.3 (≈ 97.2 µM) | Cc1ccc(C)n1-c1ccc(N2CCOCC2)c([N+](=O)[O-])c1 |
| 49.9 (≈ 139 µM) | C=CCn1c(N)cc(=O)nc1SCC(=O)Nc1ccccc1C(N)=O |
| 52.4 (≈ 139 µM) | CC(NC(=O)COC(=O)c1cccnc1Cl)C12CC3CC(CC(C3)C1)C2 (stereo not drawn) |

| solubility kinetic [µg/mL] | Structure (SMILES) |
| --- | --- |
| 1.8 (≈ 4.04 µM) | CN(c1ccccc1)S(=O)(=O)c1cccc(NC(=O)c2ccc(Cl)c([N+](=O)[O-])c2)c1 |
| > 44.5 | Cc1csc(SCC(=O)Nc2ccc(C)c(F)c2)n1 |
| > 41.9 | COc1ccc(C(=O)OCC(=O)NC2CC2)cc1OC |
| 2.9 (≈ 9.25 µM) | CC(=O)c1cccc(NC(=O)CCCSc2ccccc2)c1 |
| 5.2 (≈ 14 µM) | O=C(Cc1ccc([N+](=O)[O-])cc1)N1CCN(c2ccc([N+](=O)[O-])cc2)CC1 |
| > 42.7 | CCN1C(=O)CS/C1=N\S(=O)(=O)c1ccccc1 |
| > 33.2 | Nc1cc(C(F)(F)F)cc([N+](=O)[O-])c1N |
| > 43.2 | O=C1CCC([N+](=O)[O-])C(c2ccccc2C(F)(F)F)N1 (stereo not drawn) |
| > 34.2 | CC(C)(CO)NC(=S)NCc1ccco1 |
| 18.1 (≈ 58.1 µM) | COCC(C)NC(=O)c1cc2c(ccc3ccccc32)oc1=O (stereo not drawn) |
| 2.1 (≈ 5.76 µM) | Cc1ccccc1CN(C)C(=O)COC(=O)c1ccc2[nH]c(C)c(C)c2c1 |
| 12.4 (≈ 44.4 µM) | Cc1ccc2ccc(C)[n+](CCCS(=O)(=O)[O-])c2c1 |
| > 39.3 | Cc1c(Cl)cccc1Nc1ccccc1C(=O)O |
| 40.5 (≈ 146 µM) | O=C(NCc1ccc(Cl)cc1)c1nccnc1CO |
| < 0.8 | CCOc1ccc(N/C=C/C(=O)c2cc(OC)c(OC)c(OC)c2)cc1 |
| > 39.9 | O=C(O)CC1SC(=Nc2ccc(O)cc2)NC1=O (stereo not drawn) |
| < 0.4 | COc1ccc(NC(=O)c2cc(-c3ccco3)nc3ccccc23)cc1 |
| 34.6 (≈ 126 µM) | Cc1ccc(NC(=O)CCC(=O)c2cccs2)nc1 |
| > 50.6 | Cc1ccccc1/C=C/c1cc[n+](C)cc1.[I-] |
| > 47.9 | CN(C(=O)COC(=O)c1ccc2c(c1)OCO2)C1CCCCC1 |
| 43.2 | CC1(C)C2CCC(C2)C1(C)NC(=O)C[N+](C)(C)C.[Cl-] (stereo not drawn) |
| > 55.9 | Cc1cn2c(=O)c(C(=O)N3CCN(c4ccccc4F)CC3)cnc2s1 |
| > 58.9 | COc1cc(CC(=O)N2CCN(C(=O)C3CCCO3)CC2)cc(OC)c1OC (stereo not drawn) |
| 5.4 (≈ 16.2 µM) | COc1ccc(OC)c(/C=C2\SC(N3CCCCC3)=NC2=O)c1 |

| solubility kinetic [µg/mL] | Structure (SMILES) |
| --- | --- |
| > 46.7 | CC1(C)Cc2c(C#N)c(N)n(-c3ccccc3)c(=S)c2CO1 |
| 0.8 (≈ 2.32 µM) | CC(=O)c1ccc(N/C=C/C(=O)c2ccc(Br)cc2)cc1 |
| 32.6 (≈ 87.3 µM) | CCOc1ccc(-n2ccnc(SCC(=O)NC3CCCC3)c2=O)cc1 |
| 11.9 (≈ 38.1 µM) | CSc1ccccc1NC(=O)CN1c2ccccc2CC1C (stereo not drawn) |
| 27.9 (≈ 122 µM) | C=CCn1c(C(CC)CC)nc2ccccc21 |
| > 50.1 | Cl.Clc1cccc(CN2C3=NCCCN3c3ccccc32)c1 |
| 29.4 (≈ 142 µM) | CCC(=O)Nc1cccc(C(=O)OC)c1 |
| > 47.9 | CC(=O)Nc1ccc(S(=O)(=O)NC(C)c2ccncc2)cc1 (stereo not drawn) |
| 9.6 (≈ 36 µM) | Cc1ccc(OCCn2c(C)nc3ccccc32)cc1 |
| > 38.5 | Cc1csc(SCC(=O)NC2CCCC2)n1 |
| 3.7 (≈ 15.4 µM) | CCOc1ccc2[nH]c3ncccc3c(=O)c2c1 |
| 1.4 (≈ 4.89 µM) | CCc1c(C)nc(SC/C=C/c2ccccc2)[nH]c1=O |
| 13.1 (≈ 38.9 µM) | COc1ccccc1NC(=O)COC(=O)c1ccc2ccccc2n1 |
| 29.8 (≈ 77.9 µM) | CCN1CCc2c(OCC(=O)Nc3ccc4c(c3)OCCO4)cccc2C1=O |
| 9 (≈ 28.5 µM) | O=C(NCCc1c[nH]c2ccccc12)C(=O)NCC1CCCO1 (stereo not drawn) |
| 4.4 (≈ 14.9 µM) | O=C(CN1C(=O)c2cccc3cccc1c23)NC1CCCC1 |
| 35.2 (≈ 145 µM) | COc1cc(C=O)ccc1OCc1ccncc1 |
| 15.8 (≈ 45.4 µM) | O=C(COC(=O)CNC(=O)c1ccccc1)Nc1ccc(Cl)cn1 |
| > 54.7 | Cc1ccccc1Nc1nnc(SCC(=O)NCC2CCCO2)s1 (stereo not drawn) |
| 0.4 (≈ 1.35 µM) | COc1ccc(/C=N/OCc2ccccc2C#N)c(OC)c1 |
| 43 (≈ 128 µM) | COc1ccc(/C=C/C2=Nc3ccccc3NC(C)(C)C2)cc1OC |
| 3.2 (≈ 9.84 µM) | O=C(/C=C/c1cccc(F)c1)OCC(=O)N1CCc2ccccc21 |
| 0.5 (≈ 1.6 µM) | CCSc1ncc(Cl)c(C(=O)Nc2ccccc2F)n1 |
| 40.1 (≈ 142 µM) | COCCCNC(=S)Nc1ccc(C)cc1[N+](=O)[O-] |

| solubility kinetic [µg/mL] | Structure (SMILES) |
| --- | --- |
| 47.5 | CCCCNC1c2ccccc2C(=O)N1Cc1ccccc1.Cl (stereo not drawn) |
| 1.5 (≈ 4.5 µM) | COc1cccc(OCC(=O)Nc2ccccc2-c2ccccc2)c1 |
| > 51.3 | O=C(COC(=O)c1cccc(Br)c1)NCC1CCCO1 (stereo not drawn) |
| > 46.3 | CC1(C)CC(NC(=O)Cc2ccc(Cl)cc2)CC(C)(C)N1 |
| 6.3 (≈ 18.6 µM) | C=CCOn1c(=O)c(-c2ccc(OCC)cc2)[n+]([O-])c2ccccc21 |
| 4.5 (≈ 13.6 µM) | CN(Cc1ccccc1)C(=O)c1ccc(COc2ccccc2)cc1 |
| > 46.1 | O=C(NC(=S)NNC(=O)c1ccco1)c1ccc(F)cc1 |
| > 43.6 | Cc1ccc[n+](CC(=O)Nc2ccc(C)c(C)c2)c1.[Cl-] |
| 45.6 (≈ 133 µM) | CCOC(=O)CN1C(=O)C(=O)N(Cc2c(F)cccc2Cl)C1=O |
| 7.2 (≈ 26.7 µM) | Cc1oc(/N=C/c2cccc([N+](=O)[O-])c2)c(C#N)c1C |
| 2 (≈ 7.51 µM) | CC(=O)c1sc(NC(=O)c2cccs2)nc1C |
| 47.3 (≈ 142 µM) | CCOC(=O)C1CCN(S(=O)(=O)c2ccc(Cl)nc2)CC1 |
| > 47 | CC1Cc2ccccc2N1C(=O)Cn1cc([N+](=O)[O-])ccc1=O (stereo not drawn) |
| > 45.2 | CCN1CCN(C(=O)c2[nH]c3ccc(OC)cc3c2C)CC1 |
| 7.2 (≈ 15.9 µM) | O=C(CNS(=O)(=O)c1ccc(Br)cc1)N1CCN(Cc2ccccc2)CC1 |
| 8.7 (≈ 34.6 µM) | Cn1c(=O)cc(Nc2ccc(Cl)cc2)[nH]c1=O |
| 1.5 (≈ 4.73 µM) | CCOc1ccc2oc(C(=O)OCC(=O)NC3CC3)c(C)c2c1 |
| 2 (≈ 6.2 µM) | NC(=O)c1cc(S(=O)(=O)N2CCc3ccccc3C2)cs1 |
| 18.1 (≈ 52.9 µM) | N#Cc1ccc(-c2nc3ccc(Br)cc3c(=O)n2O)cc1 |
| > 54.5 | COC(=O)C1CN(C(=O)c2cccc(OC(F)F)c2)c2ccccc2O1 (stereo not drawn) |

| Structure (SMILES) | solubility kinetic [µg/mL] |
| --- | --- |
| CCNC(=O)[C@H]1O[C@@H](n2cnc3c(N)ncnc32)[C@H](O)[C@@H]1O | > 46.2 |
| O=C(O)C(=O)O.c1ccc2c(OCCCN3CCCCCC3)cccc2c1 | 32.8 |

Reference: PubChem BioAssay AID1996
